Starred links: 1 amine or outer side, 2 acyl side, 3 side chain; linkers in the order of their positions; H or OH if unused. Non-standard residues stand in square brackets, D forms with d. Residues, ends and D or L forms follow the SMILES beside them. Groups on a side chain read outwards from the residue. *: point of attachment. γGlu = O=C(O)[C@H](CCC(=O)[*:2])N[*:1]; Stearoyl = CCCCCCCCCCCCCCCCCC(=O)*; Palmitoyl = CCCCCCCCCCCCCCCC(=O)*; αMeF = C[C@](N)(Cc1ccccc1)C(=O)O; PEG2 = NCCOCCOCCC(=O)O; Aib = CC(C)(N)C(=O)O
Assays:
[1] = target: human GLP-1 receptor (hGLP-1R) (Homo sapiens, UniProt P43220); experiment: cAMP production (HTRF) in CHO cells expressing hGLP-1R; type: cell-based; design: expressed in transfected cells; details: for % Relative Potency Ratio: Table 6, % GLP-1R activity relative to GLP-1 / % GlucR activity relative to glucagon; for EC50: Table 6, peptides modified at position 17, cAMP in CHO hGLP-1R cells, geometric mean, read-out: hGLP-1R EC50
human GLP-1 receptor (hGLP-1R), sequence (P43220 24-463): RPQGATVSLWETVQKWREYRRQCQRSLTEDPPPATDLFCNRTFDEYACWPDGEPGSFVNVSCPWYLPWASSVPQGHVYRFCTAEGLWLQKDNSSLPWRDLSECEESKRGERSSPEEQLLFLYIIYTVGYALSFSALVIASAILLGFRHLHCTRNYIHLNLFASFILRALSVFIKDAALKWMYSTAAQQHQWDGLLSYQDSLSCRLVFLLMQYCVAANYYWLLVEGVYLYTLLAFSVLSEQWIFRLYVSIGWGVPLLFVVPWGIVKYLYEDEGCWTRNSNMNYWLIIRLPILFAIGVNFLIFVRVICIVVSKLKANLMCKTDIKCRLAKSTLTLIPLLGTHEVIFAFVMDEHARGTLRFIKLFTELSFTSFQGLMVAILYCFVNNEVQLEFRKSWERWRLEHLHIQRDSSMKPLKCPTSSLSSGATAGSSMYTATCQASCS
Procedure, shortened: (§1)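 Read-out: HTRF cAMP (anti-cAMP cryptate donor, cAMP-d2 acceptor in conjugate/lysis buffer), converted to % Delta F and fitted by 4-parameter logistic for EC50. Cell densities were 1×10^5 cells/mL (hGLP-1R) or 2×10^5 cells/mL (hGCGR). Stimulation lasted 30 min at room temperature.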

[2] = target: human glucagon receptor (hGCGR) (Homo sapiens, UniProt P47871); experiment: cAMP production (HTRF) in CHO cells expressing hGCGR; type: cell-based; design: expressed in transfected cells; details: Table 6, peptides modified at position 17; cAMP in CHO hGCGR cells; geometric mean; read-out: hGluc-R EC50
human glucagon receptor (hGCGR), sequence (P47871 26-477): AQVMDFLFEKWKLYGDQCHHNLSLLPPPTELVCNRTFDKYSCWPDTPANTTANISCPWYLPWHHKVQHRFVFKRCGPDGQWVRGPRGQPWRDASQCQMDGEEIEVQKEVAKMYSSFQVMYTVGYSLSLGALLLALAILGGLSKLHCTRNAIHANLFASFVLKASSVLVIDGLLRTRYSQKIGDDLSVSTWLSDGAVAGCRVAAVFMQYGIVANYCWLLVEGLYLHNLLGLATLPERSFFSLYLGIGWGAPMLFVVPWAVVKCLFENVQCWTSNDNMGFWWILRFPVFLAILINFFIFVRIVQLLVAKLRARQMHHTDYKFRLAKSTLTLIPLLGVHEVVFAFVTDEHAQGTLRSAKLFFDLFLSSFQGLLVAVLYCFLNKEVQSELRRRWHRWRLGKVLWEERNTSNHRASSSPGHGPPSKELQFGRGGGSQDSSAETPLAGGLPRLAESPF
Procedure, shortened: as §1

% Relative Potency Ratio [1] | EC50 [2] [nM] | EC50 [1] [pM] | SMILES
40.6 | 0.0125 |  | CCCCCCCCCCCCCCCCCC(=O)N[C@@H](CCC(=O)N[C@@H](CCC(=O)NCCOCCOCCC(=O)NCCOCCOCCC(=O)NCCCC[C@H](NC(=O)[C@H](CO)NC(=O)[C@H](CC(=O)O)NC(=O)[C@H](CC(C)C)NC(=O)C(C)(C)NC(=O)[C@H](CCCCN)NC(=O)[C@H](CO)NC(=O)[C@@H](NC(=O)[C@H](CC(=O)O)NC(=O)[C@H](CO)NC(=O)[C@@H](NC(=O)[C@](C)(Cc1ccccc1)NC(=O)[C@H](CO)NC(=O)CNC(=O)[C@H](CCC(N)=O)NC(=O)[C@H](CO)NC(=O)[C@@H](N)Cc1c[nH]cn1)[C@@H](C)O)C(C)C)C(=O)N[C@@H](C)C(=O)N[C@@H](C)C(=O)N[C@@H](CCC(N)=O)C(=O)N[C@@H](CC(=O)O)C(=O)N[C@@](C)(Cc1ccccc1)C(=O)N[C@H](C(=O)N[C@@H](CCC(N)=O)C(=O)NC(C)(C)C(=O)N[C@@H](CC(C)C)C(=O)N[C@@H](C)C(=O)N[C@@H](CC(N)=O)C(=O)N[C@H](C(N)=O)[C@@H](C)O)C(C)C)C(=O)O)C(=O)O [Peptide 95] (H-HSQGS[αMeF]TSDVSK[Aib]LDSK([PEG2-PEG2-γGlu-γGlu-Stearoyl])AAQD[αMeF]VQ[Aib]LANT-NH2; N-terminus assumed)
43.8 | 0.0541 | 2.44 | CCCCCCCCCCCCCCCCCC(=O)N[C@@H](CCC(=O)N[C@@H](CCC(=O)NCCOCCOCCC(=O)NCCOCCOCCC(=O)NCCCC[C@H](NC(=O)[C@H](CO)NC(=O)[C@H](CC(=O)O)NC(=O)[C@H](CC(C)C)NC(=O)C(C)(C)NC(=O)[C@H](CCCCN)NC(=O)[C@H](CO)NC(=O)[C@@H](NC(=O)[C@H](CC(=O)O)NC(=O)[C@H](CO)NC(=O)[C@@H](NC(=O)[C@](C)(Cc1ccccc1)NC(=O)[C@H](CO)NC(=O)CNC(=O)[C@H](CCC(N)=O)NC(=O)[C@H](CO)NC(=O)[C@@H](N)Cc1c[nH]cn1)[C@@H](C)O)C(C)C)C(=O)N[C@@H](C)C(=O)N[C@@H](C)C(=O)N[C@@H](CCC(N)=O)C(=O)N[C@@H](CC(=O)O)C(=O)N[C@@](C)(Cc1ccccc1)C(=O)N[C@H](C(=O)N[C@@H](CCC(N)=O)C(=O)NC(C)(C)C(=O)N[C@H](C(=O)N[C@H](C(=O)N[C@@H](CCC(=O)O)C(N)=O)[C@@H](C)CC)[C@@H](C)CC)C(C)C)C(=O)O)C(=O)O [Peptide 98] (H-HSQGS[αMeF]TSDVSK[Aib]LDSK([PEG2-PEG2-γGlu-γGlu-Stearoyl])AAQD[αMeF]VQ[Aib]IIE-NH2; N-terminus assumed)
29.7 | 0.0332 | 2.21 | CCCCCCCCCCCCCCCC(=O)N[C@@H](CCC(=O)N[C@@H](CCC(=O)NCCOCCOCCC(=O)NCCOCCOCCC(=O)NCCCC[C@H](NC(=O)[C@H](CO)NC(=O)[C@H](CC(=O)O)NC(=O)[C@H](CC(C)C)NC(=O)C(C)(C)NC(=O)[C@H](CCCCN)NC(=O)[C@H](CO)NC(=O)[C@@H](NC(=O)[C@H](CC(=O)O)NC(=O)[C@H](CO)NC(=O)[C@@H](NC(=O)[C@](C)(Cc1ccccc1)NC(=O)[C@H](CO)NC(=O)CNC(=O)[C@H](CCC(N)=O)NC(=O)[C@H](CO)NC(=O)[C@@H](N)Cc1c[nH]cn1)[C@@H](C)O)C(C)C)C(=O)N[C@@H](C)C(=O)N[C@@H](C)C(=O)N[C@@H](CCC(N)=O)C(=O)N[C@@H](CC(=O)O)C(=O)N[C@@](C)(Cc1ccccc1)C(=O)N[C@H](C(=O)N[C@@H](CCC(N)=O)C(=O)NC(C)(C)C(=O)N[C@H](C(=O)N[C@@H](C)C(=O)N[C@@H](CC(N)=O)C(N)=O)[C@@H](C)CC)C(C)C)C(=O)O)C(=O)O [Peptide 99] (H-HSQGS[αMeF]TSDVSK[Aib]LDSK([PEG2-PEG2-γGlu-γGlu-Palmitoyl])AAQD[αMeF]VQ[Aib]IAN-NH2; N-terminus assumed)
310.3 | 0.0405 |  | CCCCCCCCCCCCCCCCCC(=O)N[C@@H](CCC(=O)N[C@@H](CCC(=O)NCCOCCOCCC(=O)NCCOCCOCCC(=O)NCCCC[C@H](NC(=O)[C@H](CO)NC(=O)[C@H](CC(=O)O)NC(=O)[C@H](CC(C)C)NC(=O)C(C)(C)NC(=O)[C@H](CCCCN)NC(=O)[C@H](CO)NC(=O)[C@@H](NC(=O)[C@H](CC(=O)O)NC(=O)[C@H](CO)NC(=O)[C@@H](NC(=O)[C@](C)(Cc1ccccc1)NC(=O)[C@H](CO)NC(=O)CNC(=O)[C@H](CCC(N)=O)NC(=O)C(C)(C)NC(=O)[C@@H](N)Cc1c[nH]cn1)[C@@H](C)O)C(C)C)C(=O)N[C@@H](C)C(=O)N[C@@H](C)C(=O)N[C@@H](CCC(N)=O)C(=O)N[C@@H](CC(=O)O)C(=O)N[C@@](C)(Cc1ccccc1)C(=O)N[C@H](C(=O)N[C@@H](CCC(N)=O)C(=O)NC(C)(C)C(=O)N[C@H](C(=O)N[C@@H](C)C(=O)N[C@@H](CC(N)=O)C(N)=O)[C@@H](C)CC)C(C)C)C(=O)O)C(=O)O [Peptide 100] (H-H[Aib]QGS[αMeF]TSDVSK[Aib]LDSK([PEG2-PEG2-γGlu-γGlu-Stearoyl])AAQD[αMeF]VQ[Aib]IAN-NH2; N-terminus assumed)
220.8 | 0.0594 |  | CCCCCCCCCCCCCCCCCC(=O)N[C@@H](CCC(=O)N[C@@H](CCC(=O)NCCOCCOCCC(=O)NCCOCCOCCC(=O)NCCCC[C@H](NC(=O)[C@H](CO)NC(=O)[C@H](CC(=O)O)NC(=O)[C@H](CC(C)C)NC(=O)C(C)(C)NC(=O)[C@H](CCCCN)NC(=O)[C@H](CO)NC(=O)[C@@H](NC(=O)[C@H](CC(=O)O)NC(=O)[C@H](CO)NC(=O)[C@@H](NC(=O)[C@](C)(Cc1ccccc1)NC(=O)[C@H](CO)NC(=O)CNC(=O)[C@H](CCC(N)=O)NC(=O)C(C)(C)NC(=O)[C@@H](N)Cc1c[nH]cn1)[C@@H](C)O)C(C)C)C(=O)N[C@@H](C)C(=O)N[C@@H](C)C(=O)N[C@@H](CCC(N)=O)C(=O)N[C@@H](CC(=O)O)C(=O)N[C@@](C)(Cc1ccccc1)C(=O)N[C@H](C(=O)N[C@@H](CCC(N)=O)C(=O)N[C@@H](Cc1c[nH]c2ccccc12)C(=O)N[C@H](C(=O)N[C@@H](C)C(=O)N[C@@H](CC(N)=O)C(N)=O)[C@@H](C)CC)C(C)C)C(=O)O)C(=O)O [Peptide 103] (H-H[Aib]QGS[αMeF]TSDVSK[Aib]LDSK([PEG2-PEG2-γGlu-γGlu-Stearoyl])AAQD[αMeF]VQWIAN-NH2; N-terminus assumed)
0.4 | 0.0456 | 247 | CCCCCCCCCCCCCCCCCC(=O)N[C@@H](CCC(=O)N[C@@H](CCC(=O)NCCOCCOCCC(=O)NCCOCCOCCC(=O)NCCCC[C@H](NC(=O)[C@H](CO)NC(=O)[C@H](CC(=O)O)NC(=O)[C@H](CC(C)C)NC(=O)C(C)(C)NC(=O)[C@H](CCCCN)NC(=O)[C@H](CO)NC(=O)[C@@H](NC(=O)[C@H](CC(=O)O)NC(=O)[C@H](CO)NC(=O)[C@@H](NC(=O)[C@](C)(Cc1ccccc1)NC(=O)[C@H](CO)NC(=O)CNC(=O)[C@H](CCC(N)=O)NC(=O)[C@@H](NC(=O)[C@@H](N)Cc1c[nH]cn1)[C@@H](C)O)[C@@H](C)O)C(C)C)C(=O)N[C@@H](C)C(=O)N[C@@H](C)C(=O)N[C@@H](CCC(N)=O)C(=O)N[C@@H](CC(=O)O)C(=O)N[C@@](C)(Cc1ccccc1)C(=O)N[C@H](C(=O)N[C@@H](CCC(N)=O)C(=O)NC(C)(C)C(=O)N[C@H](C(=O)N[C@@H](C)C(=O)N[C@@H](CC(N)=O)C(N)=O)[C@@H](C)CC)C(C)C)C(=O)O)C(=O)O [Peptide 104] (H-HTQGS[αMeF]TSDVSK[Aib]LDSK([PEG2-PEG2-γGlu-γGlu-Stearoyl])AAQD[αMeF]VQ[Aib]IAN-NH2; N-terminus assumed)
3.7 | 0.121 | 64.8 | CCCCCCCCCCCCCCCC(=O)N[C@@H](CCC(=O)N[C@@H](CCC(=O)NCCOCCOCCC(=O)NCCOCCOCCC(=O)NCCCC[C@H](NC(=O)[C@H](CO)NC(=O)[C@H](CC(=O)O)NC(=O)[C@H](CC(C)C)NC(=O)C(C)(C)NC(=O)[C@H](CCCCN)NC(=O)[C@H](CO)NC(=O)[C@@H](NC(=O)[C@H](CC(=O)O)NC(=O)[C@H](CO)NC(=O)[C@@H](NC(=O)[C@](C)(Cc1ccccc1)NC(=O)[C@H](CO)NC(=O)CNC(=O)[C@H](CCC(N)=O)NC(=O)[C@H](CO)NC(=O)[C@@H](N)Cc1c[nH]cn1)[C@@H](C)O)C(C)C)C(=O)N[C@@H](CCC(N)=O)C(=O)N[C@@H](C)C(=O)N[C@@H](CCC(N)=O)C(=O)N[C@@H](CC(=O)O)C(=O)N[C@@](C)(Cc1ccccc1)C(=O)N[C@H](C(=O)N[C@@H](CCC(N)=O)C(=O)NC(C)(C)C(=O)N[C@H](C(=O)N[C@@H](C)C(=O)N[C@@H](CC(N)=O)C(N)=O)[C@@H](C)CC)C(C)C)C(=O)O)C(=O)O [Peptide 105] (H-HSQGS[αMeF]TSDVSK[Aib]LDSK([PEG2-PEG2-γGlu-γGlu-Palmitoyl])QAQD[αMeF]VQ[Aib]IAN-NH2)
10.7 | 0.0368 | 6.82 | CCCCCCCCCCCCCCCC(=O)N[C@@H](CCC(=O)N[C@@H](CCC(=O)NCCOCCOCCC(=O)NCCOCCOCCC(=O)NCCCC[C@H](NC(=O)[C@H](CO)NC(=O)[C@H](CC(=O)O)NC(=O)[C@H](CC(C)C)NC(=O)C(C)(C)NC(=O)[C@H](CCCCN)NC(=O)[C@H](CO)NC(=O)[C@@H](NC(=O)[C@H](CC(=O)O)NC(=O)[C@H](CO)NC(=O)[C@@H](NC(=O)[C@](C)(Cc1ccccc1)NC(=O)[C@H](CO)NC(=O)CNC(=O)[C@H](CCC(N)=O)NC(=O)[C@H](CO)NC(=O)[C@@H](N)Cc1c[nH]cn1)[C@@H](C)O)C(C)C)C(=O)N[C@@H](C)C(=O)N[C@@H](C)C(=O)N[C@@H](CCC(N)=O)C(=O)N[C@@H](CC(=O)O)C(=O)N[C@@](C)(Cc1ccccc1)C(=O)N[C@H](C(=O)N[C@@H](CCC(N)=O)C(=O)N[C@@H](Cc1c[nH]cn1)C(=O)N[C@H](C(=O)N[C@@H](C)C(=O)N[C@@H](CC(N)=O)C(N)=O)[C@@H](C)CC)C(C)C)C(=O)O)C(=O)O [Peptide 106] (H-HSQGS[αMeF]TSDVSK[Aib]LDSK([PEG2-PEG2-γGlu-γGlu-Palmitoyl])AAQD[αMeF]VQHIAN-NH2)

Source: patent publication US20250353891A1 (MEDIMMUNE LIMITED, priority 2022, published 2025)
